# Measured values published in patent US20070149570A1, “Piperidine derivative and use thereof” (priority 2005, published 2007).
# pIC50: −log10 of the molar value.
# Target: T1, substance P receptors (Homo sapiens, UniProt P25103)
# T1 construct: The receptor was prepared from human lymphoblast cells (IM-9); endogenous in cells; host or cells: IM-9 human lymphoblast cells (membrane preparation)
# Experiment: Radioligand receptor binding inhibitory activity using receptor from human lymphoblast cells (IM-9), 125I-BHSP
# Conditions: IC50 (concentration necessary to cause 50% inhibition), radioligand 125I-BHSP, 25° C., 30 minutes
# Method: Radioligand receptor binding inhibitory activity (Binding inhibitory activity using receptor from human lymphoblast cells (IM-9))
# The method of M. A. Cascieri et al., [Molecular Pharmacology, vol. 42, p. […] The receptor was prepared from human lymphoblast cells (IM-9). IM-9 cells (2×10^5 cells/mL) were incubated for 3 days (one liter), which was then subjected to centrifugation for 5 minutes at 500×G to obtain cell pellets. […] The residue was washed twice with 30 mL of the above-mentioned buffer, which was then preserved frozen (−80° C.) as a specimen of the receptor.
# The specimen was suspended in a reaction buffer (50 mM Tri-HCl buffer (pH 7.4), 0.02% bovine serum albumin, 1 mM phenylmethylsulfonyl fluoride, 2 μg/mL chymostatin, 40 μg/mL bacitracin and 3 mM manganese chloride) to have protein in the concentration of 0.5 mg/mL of protein and 100 μL portion of the suspension was used in the reaction. […] The amount of nonspecific binding was determined by adding substance P at a final concentration of 2×10^−6 M.
# After the reaction, using a cell harvester (290 PHD, Cambridge Technology, Inc., U.S.A.), filtration was carried out through a glass filter (GF/B, Whatman, U.S.A.), which was immersed in 0.1% polyethyleneimine for 24 hours and dried. After washing three times with 250 μL of 50 mM Tris-HCl buffer (pH 7.4) containing 0.02% bovine serum albumin, the radioactivity remaining on the filter was determined with a gamma counter.
# T1 sequence (P25103 whole entry): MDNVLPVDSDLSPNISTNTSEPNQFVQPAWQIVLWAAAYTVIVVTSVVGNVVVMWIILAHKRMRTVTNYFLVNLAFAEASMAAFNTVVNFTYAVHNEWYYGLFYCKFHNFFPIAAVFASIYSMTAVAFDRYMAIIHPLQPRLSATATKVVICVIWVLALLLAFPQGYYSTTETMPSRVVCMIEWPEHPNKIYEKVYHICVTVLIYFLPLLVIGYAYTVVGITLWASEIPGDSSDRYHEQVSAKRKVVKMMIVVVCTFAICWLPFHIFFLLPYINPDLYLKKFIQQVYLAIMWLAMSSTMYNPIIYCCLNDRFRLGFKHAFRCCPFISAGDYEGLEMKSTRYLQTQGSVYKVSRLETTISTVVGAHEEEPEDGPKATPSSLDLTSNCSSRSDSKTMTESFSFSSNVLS
row,Compound,pIC50
1,"COc1ccc(-c2ccc(C#N)cc2)cc1CN[C@H]1CCN(C(=O)C2CCN(C(C)=O)CC2)C[C@H]1c1ccccc1 [Example 35, 3′-[({(3R,4S)-1-[(1-acetylpiperidin-4-yl)carbonyl]-3-phenylpiperidin-4-yl}amino)methyl]-4′-methoxybiphenyl-4-carbonitrile]",10.77

# Same assay, conditions: radioligand 125I-BHSP, 25° C., 30 minutes, read-out: IC50 (concentration necessary to cause 50% inhibition)
row,Compound,pIC50
1,"COc1ccc(-c2ccc(C#N)cc2F)cc1CN[C@H]1CCN(C(=O)CNC(C)=O)C[C@H]1c1ccccc1 [Example 11, N-[2-((3R,4S)-4-{[(4′-cyano-2′-fluoro-4-methoxybiphenyl-3-yl)methyl]amino}-3-phenylpiperidin-1-yl)-2-oxoethyl]acetamide]",10.80
2,"COc1ccc(-c2ccc(C)cc2)cc1CN[C@H]1CCN(C(=O)CNC(C)=O)C[C@H]1c1ccccc1 [Example 17, N-[2-((3R,4S)-4-{[(4-methoxy-4′-methylbiphenyl-3-yl)methyl]amino}-3-phenylpiperidin-1-yl)-2-oxoethyl]acetamide]",10.66
3,"COc1ccc(-c2ccc(Br)cc2)cc1CN[C@H]1CCN(C(=O)CNC(C)=O)C[C@H]1c1ccccc1 [Example 22, N-[2-((3R,4S)-4-{[(4′-bromo-4-methoxybiphenyl-3-yl)methyl]amino}-3-phenylpiperidin-1-yl)-2-oxoethyl]acetamide]",10.74
4,"C#Cc1ccc(-c2ccc(OC)c(CN[C@H]3CCN(C(=O)CNC(C)=O)C[C@H]3c3ccccc3)c2)cc1 [Example 23, N-[2-((3R,4S)-4-{[(4′-ethynyl-4-methoxybiphenyl-3-yl)methyl]amino}-3-phenylpiperidin-1-yl)-2-oxoethyl]acetamide]",10.82
5,"COc1ccc(-c2ccc(C#N)cc2C)cc1CN[C@H]1CCN(C(=O)CNC(C)=O)C[C@H]1c1ccccc1 [Example 25, N-[2-((3R,4S)-4-{[(4′-cyano-4-methoxy-2′-methylbiphenyl-3-yl)methyl]amino}-3-phenylpiperidin-1-yl)-2-oxoethyl]acetamide]",10.74
6,"COCC(=O)N1CC[C@H](NCc2cc(-c3ccc(C#N)cc3)ccc2OC)[C@H](c2ccccc2)C1 [Example 32, 4′-methoxy-3′-({[(3R,4S)-1-(methoxyacetyl)-3-phenylpiperidin-4-yl]amino}methyl)biphenyl-4-carbonitrile]",10.82
7,"COc1ccc(-c2ccc(C#N)cc2F)cc1CN[C@H]1CCN(C(=O)C2CCN(C(C)=O)CC2)C[C@H]1c1ccccc1 [Example 36, 3′-[({(3R,4S)-1-[(1-acetylpiperidin-4-yl)carbonyl]-3-phenylpiperidin-4-yl}amino)methyl]-2-fluoro-4′-methoxybiphenyl-4-carbonitrile]",10.77
8,"COc1ccc(-c2ccc(C#N)cc2)cc1CN[C@H]1CCN(C(=O)[C@@H](CC(N)=O)NC(C)=O)C[C@H]1c1ccccc1 [Example 41, (3R)-3-(acetylamino)-4-((3R,4S)-4-{[(4′-cyano-4-methoxybiphenyl-3-yl)methyl]amino}-3-phenylpiperidin-1-yl)-4-oxobutanamide]",10.72
9,"CC1(C)OC(=O)N(CC(=O)N2CC[C@H](NCc3cc(-c4ccc(C#N)cc4F)ccc3OC(F)(F)F)[C@H](c3ccccc3)C2)C1=O [Example 96, 3′-[({(3R,4S)-1-[(5,5-dimethyl-2,4-dioxo-1,3-oxazolidin-3-yl)acetyl]-3-phenylpiperidin-4-yl}amino)methyl]-2-fluoro-4′-(trifluoromethoxy)biphenyl-4-carbonitrile]",10.68
10,"CC1(C)OC(=O)N(CC(=O)N2CC[C@H](NCc3cc(-c4ccc(C#N)cc4F)ccc3OC(F)(F)F)[C@H](c3ccccc3)C2)C1=O [Example 97, 3′-[({(3R,4S)-1-[(5,5-dimethyl-2,4-dioxo-1,3-oxazolidin-3-yl)acetyl]-3-phenylpiperidin-4-yl}amino)methyl]-2-fluoro-4′-(trifluoromethoxy)biphenyl-4-carbonitrile]",10.64
11,"CC(=O)N1CCC(C(=O)N2CC[C@H](NCc3cc(-c4ccc(C#N)cc4F)ccc3OC(F)(F)F)[C@H](c3ccccc3)C2)CC1 [Example 101, 3′-[({(3R,4S)-1-[(1-acetylpiperidin-4-yl)carbonyl]-3-phenylpiperidin-4-yl}amino)methyl]-2-fluoro-4′-(trifluoromethoxy)biphenyl-4-carbonitrile]",10.62
12,"CC1(C)OC(=O)N(CC(=O)N2CC[C@H](NCc3cc(-c4ccc(C#N)cc4)ccc3OC(F)(F)F)[C@H](c3ccccc3)C2)C1=O [Example 137, 3′-[({(3R,4S)-1-[(5,5-dimethyl-2,4-dioxo-1,3-oxazolidin-3-yl)acetyl]-3-phenylpiperidin-4-yl}amino)methyl]-4′-(trifluoromethoxy)biphenyl-4-carbonitrile]",10.38

# Results, then the molecule that gave them:
row,pIC50,Compound
1,9.85,"O=C1CC(C(=O)N2CC[C@H](NCc3cc(-c4ccc(Cl)cc4F)ccc3OC(F)(F)F)[C@H](c3ccccc3)C2)CC(=O)N1 [Example 132, 4-{[(3R,4S)-4-({[4′-chloro-2′-fluoro-4-(trifluoromethoxy)biphenyl-3-yl]methyl}amino)-3-phenylpiperidin-1-yl]carbonyl}piperidine-2,6-dione]"
2,10.24,"CC1(C)OC(=O)N(CC(=O)N2CC[C@H](NCc3cc(-c4ccc(Cl)cc4)ccc3OC(F)(F)F)[C@H](c3ccccc3)C2)C1=O [Example 116, 3-{2-[(3R,4S)-4-({[4′-chloro-4-(trifluoromethoxy)biphenyl-3-yl]methyl}amino)-3-phenylpiperidin-1-yl]-2-oxoethyl}-5,5-dimethyl-1;3-oxazolidine-2,4-dione]"
3,10.44,"COc1ccc(-c2ccc(C(F)(F)F)cc2)cc1CN[C@H]1CCN(C(=O)CNC(C)=O)C[C@H]1c1ccccc1 [Example 18, N-{2-[(3R,4S)-4-({[4-methoxy-4′-(trifluoromethyl)biphenyl-3-yl]methyl}amino)-3-phenylpiperidin-1-yl]-2-oxoethyl}acetamide]"
4,10.51,"COc1ccc(-c2ccc(F)cc2)cc1CN[C@H]1CCN(C(=O)CNC(C)=O)C[C@H]1c1ccccc1 [Example 16, N-[2-((3R,4S)-4-{[(4′-fluoro-4-methoxybiphenyl-3-yl)methyl]amino}-3-phenylpiperidin-1-yl)-2-oxoethyl]acetamide]"
5,10.64,"CC(=O)NCC(=O)N1CC[C@H](NCc2cc(-c3ccc(Cl)cc3)ccc2OC(F)(F)F)[C@H](c2ccccc2)C1 [Example 72, N-{2-[(3R,4S)-4-({[4′-chloro-4-(trifluoromethoxy)biphenyl-3-yl]methyl}amino)-3-phenylpiperidin-1-yl]-2-oxoethyl}acetamide]"
6,10.70,"COc1ccc(-c2ccc(Cl)cc2)cc1CN[C@H]1CCN(C(=O)CNC(C)=O)C[C@H]1c1ccccc1 [Example 15, N-[2-((3R,4S)-4-{[(4′-chloro-4-methoxybiphenyl-3-yl)methyl]amino}-3-phenylpiperidin-1-yl)-2-oxoethyl]acetamide]"
7,10.72,"COc1ccc(-c2ccc(C#N)cc2)cc1CN[C@H]1CCN(C(=O)CNC(C)=O)C[C@H]1c1ccccc1 [Example 10, N-[2-((3R,4S)-4-{[(4′-cyano-4-methoxybiphenyl-3-yl)methyl]amino}-3-phenylpiperidin-1-yl)-2-oxoethyl]acetamide]"
8,10.72,"COc1ccc(-c2ccc(C#N)c(F)c2)cc1CN[C@H]1CCN(C(=O)CNC(C)=O)C[C@H]1c1ccccc1 [Example 21, N-[2-((3R,4S)-4-{[(4′-cyano-3′-fluoro-4-methoxybiphenyl-3-yl)methyl]amino}-3-phenylpiperidin-1-yl)-2-oxoethyl]acetamide]"
9,10.82,"COCC(=O)N1CC[C@H](NCc2cc(-c3ccc(C#N)cc3F)ccc2OC)[C@H](c2ccccc2)C1 [Example 33, 2-fluoro-4′-methoxy-3′-({[(3R,4S)-1-(methoxyacetyl)-3-phenylpiperidin-4-yl]amino}methyl)biphenyl-4-carbonitrile]"
10,10.82,"COc1ccc(-c2ccc(C#N)cc2)cc1CN[C@H]1CCN(C(=O)Cn2cnnn2)C[C@H]1c1ccccc1 [Example 43, 4′-methoxy-3′-({[(3R,4S)-3-phenyl-1-(1H-tetrazol-1-ylacetyl)piperidin-4-yl]amino}methyl)biphenyl-4-carbonitrile]"
11,10.82,"COc1ccc(-c2ccc(C#N)cc2)cc1CN[C@H]1CCN(C(=O)Cc2n[nH]c(=O)[nH]2)C[C@H]1c1ccccc1 [Example 44, 4′-methoxy-3′-[({(3R,4S)-1-[(5-oxo-4,5-dihydro-1H-1,2,4-triazol-3-yl)acetyl]-3-phenylpiperidin-4-yl}amino)methyl]biphenyl-4-carbonitrile]"
12,10.85,"COc1ccc(-c2ccc(C#N)cc2)cc1CN[C@H]1CCN(C(=O)C2CC(=O)NC(=O)C2)C[C@H]1c1ccccc1 [Example 42, 3′-[({(3R,4S)-1-[(2,6-dioxopiperidin-4-yl)carbonyl]-3-phenylpiperidin-4-yl}amino)methyl]-4′-methoxybiphenyl-4-carbonitrile]"
13,10.89,"N#Cc1ccc(-c2ccc(OC(F)(F)F)c(CN[C@H]3CCN(C(=O)C4CC(=O)NC(=O)C4)C[C@H]3c3ccccc3)c2)c(F)c1 [Example 102, 3′-[({(3R,4S)-1-[(2,6-dioxopiperidin-4-yl)carbonyl]-3-phenylpiperidin-4-yl}amino)methyl]-2-fluoro-4′-(trifluoromethoxy)biphenyl-4-carbonitrile]"
